Test system: miR-122 targets
Assay: RNA-Seq of miR-122 targetome (negative control)
Assay type: cell-based, human
Procedure: As described in Example 3, total RNA was isolated from DM-patient and healthy cells, and cDNA libraries were prepared for three conditions (healthy volunteer (HV); DM; DM+Compound II) for DM1 and DM2 backgrounds. The expression levels of predicted targetomes of miRNAs let-7, miR-1, miR-9, miR-29, miR-30, miR-107 and miR-181 were then compared, using miR-122 as well as more than 2,000 transcripts that are not predicted targets of any miRNA as negative controls. Three pair-wise comparisons were performed to measure: i) how a targetome varies between healthy and diseased cells (HV versus DM), ii) how a targetome responds to treatment with the inventive compounds (DM versus DM+Compound II) and, iii) how a Compound II-treated DM-targetome compares to that of a healthy signature. For each pair-wise comparison, the third dataset was used as a reference and the fold changes were calculated for each target transcript (e.g. DM1 vs. DM1+Compound II, with fold changes calculated relative to HV).
Primary myoblasts or myotubes derived from DM1 or DM2 patient samples and non-DM healthy control individuals were cultured for 90% confluence and then treated with 120 μM Compound II for 72 h. […] Quality and size distribution of the generated libraries was validated using an Agilent 2100 bioanalyzer with high-sensitivity RNA chip (Agilent) and RNA yield was measured using the Qubit […] HS Assay Kit followed by pooling of the libraries in batches of 12 and sequencing of […] pooled library on an Nextseq 500/High Output Flow Cell Cartridge using a paired end, 2×76 reads, single index protocol.
RNA-Seq reads were mapped to the human genome (build GRCh38) using STAR (Dobin et al., (2013). STAR: ultrafast universal RNA-seq aligner. Bioinformatics 29, 15-21) with gene annotations from gencode (www.gencodegenes.org; version 40). Reads mapping uniquely to exons were counted for each gene using htseq-count (Anders et al., (2015). HTSeq—a Python framework to work with high-throughput sequencing data. Bioinformatics 31, 166-169) with the parameter -s reverse and -m intersection_strict. […]

## CC(=O)N(C)c1cccc(-c2ccc3nnc(C)n3n2)c1 [Compound II]
DM1 and DM2 myotubes, 120 μM, 72 h
  change of miR-122 targets: not significantly changed
DM1 myoblasts, 120 μM, 72 h
  change of miR-122 targets: not significantly changed
DM2 myoblasts, compared to targetomes of other miRNAs
  change of miR-122 targets: weaker change
